We go through eight molecules from patent publication US10519169B2, “3-(1H-pyrrolo[2,3-C]pyridin-2-yl)-1 H-pyrazolo[4,3-B]pyridines and therapeutic uses thereof” (Samumed, LLC, priority 2015, dated 2019).

Some results are limits rather than exact numbers.

Type in all cases: cell-based
The subject of assay [1] is primary human fibroblasts derived from IPF patients (LL29 cells) treated with TGF-β1. The experiment in a line: Inhibition of fibrotic process, αSMA staining in TGF-β1 treated LL29 fibroblasts. As to conditions: Fibroblast; for EC50: 96 h, TGF-β1 20 ng/mL, 4 days, % cells positive for αSMA. From the text: Representative compounds were screened using primary human fibroblasts (derived from IPF patients) treated with TGF-β1 to determine their ability to inhibit the fibrotic process.
Primary human fibroblasts derived from IPF patients (LL29 cells) [^1Xiaoqiu Liu, et. al., “Fibrotic Lung Fibroblasts Show Blunted Inhibition by cAMP Due to Deficient cAMP Response Element-Binding Protein Phosphorylation”, Journal of Pharmacology and Experimental Therapeutics (2005), 315(2), 678-687; ^2Watts, K. L., et. al., “RhoA signaling modulates cyclin D1 expression in human lung fibroblasts; implications for idiopathic pulmonary fibrosis”, Respiratory Research (2006), 7(1), 88] were obtained from American Type Culture Collection (ATCC) and expanded in F12 medium supplemented with 15% Fetal Bovine Serum and Penicillin/Streptomycin.
Each compound was dissolved in DMSO as a 10 mM stock and used to prepare compound source plates. Serial dilution (1:2, 11-point dose-response curves from […] to […]) and compound transfer was performed using the ECHO 550 (Labcyte, Sunnyvale, Calif.) into 384-well clear bottom assay plates (Greiner Bio-One) with appropriate DMSO backfill for a final DMSO concentration of 0.1%. LL29 cells are plated at 1,500 cells/well in 80 μL/well F12 medium supplemented with 1% Fetal Bovine Serum. One hour after addition of the cells, TGF-β1 (Peprotech; 20 ng/mL) was added to the plates to induce fibrosis (ref. 1 and 2 above). Wells treated with TGF-β1 and containing DMSO were used as controls. Cells were incubated at 37° C. and 5% CO2 for 4 days. Following incubation for 4 days, SYTOX green nucleic acid stain (Life Technologies [Thermo Fisher Scientific]) was added to the wells at a final concentration of 1 μM and incubated at room temperature for 30 min. Cells were then fixed using 4% formaldehyde (Electron Microscopy Sciences), washed 3 times with PBS followed by blocking and permeabilization using 3% Bovine Serum Albumin (BSA; Sigma) and 0.3% Triton X-100 (Sigma) in PBS. Cells were then stained with antibody specific to α-smooth muscle actin (aSMA; Abcam) (ref. 1 and 2 above) in 3% Bovine Serum Albumin (BSA; Sigma) and 0.3% Triton X-100 (Sigma) in PBS, and incubated overnight at 4° C. Cells were then washed 3 times with PBS, followed by incubation with Alexa Flor-647 conjugated secondary antibody (Life Technologies [Thermo Fisher Scientific]) and DAPI at room temperature for 1 hour. Cells were then washed 3 times with PBS and plates were sealed for imaging. aSMA staining was imaged by excitation at 630 nm and emission at 665 nm and quantified using the Compartmental Analysis program on the CellInsight CX5 (Thermo Scientific). Dead or apoptotic cells were excluded from analysis based on positive SYTOX green staining. % of total cells positive for aSMA were counted in each well and normalized to the average of 11 wells treated with TGF-β1 on the same plate using Dotmatics' Studies Software. The normalized averages (fold change over untreated) of 3 replicate wells for each compound concentration were used to create dose-responses curves and EC50 values were calculated using non-linear regression curve fit in the Dotmatics' Studies Software. For EC50 of >10 μM, the percent inhibition at 10 μM is provided.

A further assay concerns IL-6. The experiment in a line: IL-6 inhibition in LPS-stimulated THP-1 cells (HTRF). As to conditions: Homo sapiens; for EC50: LPS 500 ng/mL, 22 hours, IL6 HTRF; for inhibition at 10 µM: given for EC50 >10 μM, LPS, IL6, at 10 M [sic], read-out: percent inhibition at 10 M. The procedure: Human monocyte cell line (THP-1 cells; Catalog # TIB-202, ATCC, Manassas, Va.) were cultured in Roswell Park Memorial Institute (RPMI) 1640 Medium (Catalog #21870-100, Buffalo, N.Y.) with 1% L-glutamine, 1% HEPES, 1% Sodium Pyruvate, 2% Sodium Bicarbonate supplemented with 100 units/mL penicillin, 50 μg/mL streptomycin, 2-mercaptoethanol (0.05 mM) [basal medium] and 10% fetal bovine serum (Catalog #16140089, Life Technologies, Carlsbad, Calif.) at 37° C. and 5% CO2.
THP-1 cells were cultured in basal media with 1% FBS for 24 hours before the start of the assay. Each compound was dissolved in DMSO as a 10 mM stock and used to prepare compound source plates. Serial dilution (1:3, 10-point dose-response curves starting from 10 μM) and compound transfer was performed using the ECHO 550 (Labcyte, Sunnyvale, Calif.) into 384-well white low volume assay plates (Greiner Bio-One) with appropriate DMSO backfill for a final DMSO concentration of 0.1%. THP-1 cells were plated at 5000 cells/well in the 384-well plates and incubated at 37° C. for 2 h. 500 ng/mL of LPS was added after 2 hours and cells were incubated for another 22 hours at 37° C. Plates were spun in a centrifuge for 1 minute at […] and a mixture of anti-IL6 XL665, and anti-IL6 Cryptate diluted in reconstitution buffer (Cisbio Inc.) was added to each well. Following incubation for 3 hrs at room temperature, Homogeneous Time-Resolved Fluorescence (HTRF) was measured using the Envision (Perkin Elmer) at 665 nm and […]. The ratio of fluorescence at 665 nm to 620 nm was used as a readout for IL6 quantification. All samples were processed in duplicate. Readings were normalized to DMSO treated cells and normalized activities were utilized for EC50 calculations using the dose-response log (inhibitor) vs. response-variable slope (four parameters) nonlinear regression feature available in GraphPad Prism 5.0 (or Dotmatics). For EC50 of >10 μM, the percent inhibition at […] is provided.
On the technique in general: In TR-FRET formats the signal depends on donor and acceptor labels being close together.

The next assay concerns SW480 colon cancer cells. The experiment in a line: Cell viability assay (CellTiter-Blue), SW480 cells. As to conditions: Homo sapiens, 96 h, four days, CellTiter-Blue. The procedure:
Representative compounds were screened using the following assay procedure to assess the effect on cell viability as described below.
Each compound was dissolved in DMSO as a 10 mM stock and used to prepare compound source plates. Serial dilution (1:3, 8-point dose-response curves from […]) and compound transfer was performed using the ECHO 550 (Labcyte, Sunnyvale, Calif.) into 96-well clear bottom, black-walled plates (Corning-Costar).
Approximately 2×10^3 SW480 colon cancer cells were seeded into each well and allowed to incubate in the presence or absence of compound for four days at 37° C./5% CO2. Eight replicates of DMSO-treated cells served as controls and cells treated with compound were performed in duplicate.
After incubation, 20 μL of CellTiter-Blue (Promega) was added to each well allowed to incubate for approximately 3 hours. This reagent was a buffered solution which contains resazurin, metabolically active cells were able to reduce rezarurin (blue) into resorufin (pink) which was highly fluorescent. This measured fluorescence was used as a readout for cell viability.
After incubation, the plates were read at Ex 560 nm Em 590 nm (Cytation 3, BioTek). Dose-response curves were generated and EC50 concentration values were calculated using non-linear regression curve fit in the GraphPad Prism (San Diego, Calif.) or Dotmatics' Studies Software (Bishops Stortford, UK). For EC50 of >10 μM, the percent inhibition at 10 μM is provided.

Assay [2] has as its system Wnt activity (Sp5-Luc reporter, TCF/LEF binding sites) in SW480 colon carcinoma cells. The experiment in a line: Wnt activity screening assay, Sp5-Luc reporter gene in SW480 cells. As to conditions: Homo sapiens; for EC50: overnight incubation. From the text:
The screening assay for Wnt activity is described as follows. Reporter cell lines can be generated by stably transducing cancer cell lines (e.g., colon cancer) or primary cells (e.g., IEC-6 intestinal cells) with a lentiviral construct that includes a Wnt-responsive promoter driving expression of the firefly luciferase gene.
SW480 colon carcinoma cells were transduced with a lentiviral vector expressing luciferase with a human Sp5 promoter consisting of a sequence of eight TCF/LEF binding sites. SW480 cells stably expressing the Sp5-Luc reporter gene and a hygromycin resistance gene were selected by treatment with 150 μg/mL of hygromycin for 7 days. These stably transduced SW480 cells were expanded in cell culture and used for all further screening activities. Each compound was dissolved in DMSO as a 10 mM stock and used to prepare compound source plates. Serial dilution (1:3, 10-point dose-response curves starting from 10 μM) and compound transfer was performed using the ECHO 550 (Labcyte, Sunnyvale, Calif.) into 384-well white solid bottom assay plates (Greiner Bio-One) with appropriate DMSO backfill for a final DMSO concentration of 0.1%. For Sp5-Luc reporter gene assays, the cells were plated at 4,000 cells/well in 384-well plates with medium containing 1% fetal bovine serum and incubated overnight at 37° C. and 5% CO2. Following incubation, 20 μl of BrightGlo luminescence reagent (Promega) was added to each well of the 384-well assay plates. The plates were placed on an orbital shaker for 2 min and then luminescence was quantified using the Envision (Perkin Elmer) plate reader. Readings were normalized to DMSO only treated cells, and normalized activities were utilized for EC50 calculations using the dose-response log (inhibitor) vs. response-variable slope (four parameters) nonlinear regression feature available in GraphPad Prism 5.0 (or Dotmatics). For EC50 of >10 μM, the percent inhibition at 10 μM is provided.

On to `CC(C)(C)C(=O)Nc1cncc(-c2ccc3[nH]nc(-c4cc5c(-c6cccc(F)c6)cncc5[nH]4)c3n2)c1` [Compound 8, N-(5-(3-(4-(3-Fluorophenyl)-1H-pyrrolo[2,3-c]pyridin-2-yl)-1H-pyrazolo [4,3-b]pyridin-5-yl)pyridin-3-yl)pivalamide], for which the EC50 (commonly the concentration giving half of the maximal effect) came to 2310 nM in assay [1], 228 nM in the assay with IL-6, 1210 nM in the assay on SW480 colon cancer cells and 1970 nM in assay [2].

Take `c1cc(-c2cncc3[nH]c(-c4n[nH]c5ccc(-c6cncc(CNCC7CCCC7)c6)nc45)cc23)co1` [Compound 333, 1-Cyclopentyl-N-((5-(3-(4-(furan-3-yl)-1H-pyrrolo[2,3-c]pyridin-2-yl)-1H-pyrazolo[4,3-b]pyridin-5-yl)pyridin-3-yl)methyl)methanamine]: the concentration giving a half-maximal response (EC50) in assay [1] was 1500 nM; in the assay with IL-6, 456 nM; in the assay with SW480 colon cancer cells, 7840 nM; in assay [2], above 10000 nM. Also, in assay [2] (given for EC50 >10 μM, 10 μM, read-out: percent inhibition at 10 μM), the inhibition (usually the drop in the measured response relative to a control, in per cent) at 10 µM came to 25.5%.

Consider `c1csc(-c2cncc3[nH]c(-c4n[nH]c5ccc(-c6ccncc6)nc45)cc23)c1` [Compound 354, 5-(Pyridin-4-yl)-3-(4-(thiophen-2-yl)-1H-pyrrolo[2,3-c]pyridin-2-yl)-1H-pyrazolo[4,3-b]pyridine], for which the concentration for a half-maximal effect (EC50) in assay [1] stood at 1180 nM; with IL-6, 5800 nM; in the assay on SW480 colon cancer cells, 1080 nM; in assay [2], 2230 nM.

`Fc1cccc(-c2cncc3[nH]c(-c4n[nH]c5ccc(-c6cncc(OCc7ccccc7)c6)nc45)cc23)c1` [Compound 518, 5-(5-(Benzyloxy)pyridin-3-yl)-3-(4-(3-fluorophenyl)-1H-pyrrolo[2,3-c]pyridin-2-yl)-1H-pyrazolo[4,3-b]pyridine]: the half-maximal effective concentration (EC50) in assay [1] is 1200 nM; in the assay with IL-6, above 10000 nM; in the assay with SW480 colon cancer cells it was 1120 nM; in assay [2], 1280 nM. Further, the inhibition at 10 µM in the assay with IL-6 was found to be 35.5%.

As for `CC(C)CC(=O)Nc1cncc(-c2ccc3[nH]nc(-c4cc5c(-c6ccccc6F)cncc5[nH]4)c3n2)c1` [Compound 58, N-(5-(3-(4-(2-Fluorophenyl)-1H-pyrrolo[2,3-c]pyridin-2-yl)-1H-pyrazolo [4,3-b]pyridin-5-yl)pyridin-3-yl)-3-methylbutanamide], the concentration giving a half-maximal response (EC50) in assay [1] was 697 nM; with IL-6, 85 nM; in the assay on SW480 colon cancer cells, 413 nM; in assay [2], 702 nM.

For the molecule `CC(C)Nc1cncc(-c2ccc3[nH]nc(-c4cc5c(-c6cccnc6)cncc5[nH]4)c3n2)c1` [Compound 96, N-Isopropyl-5-(3-(4-(pyridin-3-yl)-1H-pyrrolo[2,3-c]pyridin-2-yl)-1H-pyrazolo[4,3-b]pyridin-5-yl)pyridin-3-amine], the EC50 was above 10000 nM in assay [1], 120 nM with IL-6, 1380 nM with SW480 colon cancer cells and 1730 nM in assay [2]. For the same molecule, the inhibition at 10 µM in assay [1] (given for EC50 >10 μM, TGF-β1, αSMA, 10 μM, read-out: percent inhibition at 10 μM) was 0%.

On to `O=C(Nc1cncc(-c2ccc3[nH]nc(-c4cc5c(-c6cccc(F)c6)cncc5[nH]4)c3n2)c1)C1CCCCC1` [Compound 23, N-(5-(3-(4-(3-Fluorophenyl)-1H-pyrrolo[2,3-c]pyridin-2-yl)-1H-pyrazolo [4,3-b]pyridin-5-yl)pyridin-3-yl)cyclohexanecarboxamide], for which the half-maximal effective concentration (EC50) is 718 nM in assay [1], above 10000 nM in the assay with IL-6, 1070 nM in the assay with SW480 colon cancer cells and 1460 nM in assay [2]. For the same molecule, the inhibition at 10 µM in the assay with IL-6 turned out to be 1%.

`Fc1ccc(-c2cncc3[nH]c(-c4n[nH]c5ccc(-c6ccccn6)nc45)cc23)cc1` [Compound 56, 3-(4-(4-Fluorophenyl)-1H-pyrrolo[2,3-c]pyridin-2-yl)-5-(pyridin-2-yl)-1H-pyrazolo[4,3-b]pyridine]: the EC50 is 1300 nM in assay [1], above 10000 nM with IL-6, 1120 nM in the assay on SW480 colon cancer cells and 2320 nM in assay [2]. Moreover, the inhibition at 10 µM with IL-6 stood at 32.6%.
